Experimental data published in US20090233796A1, “HERBICIDAL COMPOSITION” (SYNGENTA CROP PROTECTION, INC., priority 2004, published 2009).

Key:
Format in all cases: in vivo
Cyperus = test: Compound (A) with sulcotrione, weed plots; conditions: 14 DAA, Trial 5.1
Protocol: In these tests, various weeds were treated with sulcotrione alone at an application rate equivalent to 1420 g per hectare, […] and Compound (A) at rates equivalent to the sum of these. The compositions were formulated as an emulsifyable concentrate (EC).
(§1) The results in the table under each application are the percentage of the plants that were killed.

Corn = test: Compound (A) with prosulfuron, weed plots; conditions: 13 DAA, No. 3.26
Source text: (§2) In these tests, […] and Compound (A) at rates equivalent to the sum of these. The compositions were formulated as an emulsifiable concentrate (EC).
(§3) The results in the tables under each application are the percentage of the plants that were killed.

Galium = test: Compound (A) with prosulfuron, weed plots; conditions: 13 DAA, No. 3.24
Source text: as §2, §3

Euphorbia = test: Compound (A) with primisulfuron, weed plots; conditions: 45 DAA, Trial 3.20
Source text: as §2, §3

CYPERUS ESCULENTUS = test: Compound (A) with nicosulfuron, weed plots
Protocol: In these tests, various weeds were treated with nicosulfuron alone at a rate equivalent to 35 g per hectare, […] and Compound (A) at rates equivalent to the sum of these. The compositions were formulated as an emulsifyable concentrate (EC).
as §1

CCOC(=O)COc1ncccc1Oc1cc(-n2c(=O)cc(C(F)(F)F)n(C)c2=O)c(F)cc1Cl [Compound (A)]
percentage of the plants that were killed (Cyperus; 1.25 g/ha): 50%
percentage of the plants that were killed (Cyperus; 5 g/ha): 50%
percentage of the plants that were killed (Corn; 1.25 g/ha): 70%
percentage of the plants that were killed (Corn; 2.5 g/ha): 90%
percentage of the plants that were killed (Corn; 5 g/ha): 98%
percentage of the plants that were killed (Galium; 1.25 g/ha): 50%
percentage of the plants that were killed (Galium; 2.5 g/ha): 50%
percentage of the plants that were killed (Galium; 5 g/ha): 100%
percentage of the plants that were killed (Euphorbia; 1.25 g/ha): 50%
percentage of the plants that were killed (Euphorbia; 2.5 g/ha): 70%
percentage of the plants that were killed (Euphorbia; 5 g/ha): 70%
percentage of the plants that were killed (CYPERUS ESCULENTUS; 5 g/ha, 7 DAA, No. 3.7): 40%
percentage of the plants that were killed (CYPERUS ESCULENTUS; 5 g/ha, 12 DAA, No. 3.9): 0%
percentage of the plants that were killed (CYPERUS ESCULENTUS; 10 g/ha, 7 DAA, No. 3.7): 60%
percentage of the plants that were killed (CYPERUS ESCULENTUS; 10 g/ha, 12 DAA, No. 3.9): 0%
percentage of the plants that were killed (CYPERUS ESCULENTUS; 20 g/ha, 7 DAA, No. 3.7): 60%
percentage of the plants that were killed (CYPERUS ESCULENTUS; 20 g/ha, 12 DAA, No. 3.9): 30%
